# Measured values: paper PMC7064328 (Environmental Health Perspectives, 2020)
# Where “and” joins values, the source holds several entries; their conditions need not be identical. Equal values may be shown once.
# Key:
# Type in all cases: in vivo, mouse (CD-1)
# [1] = Internal dosimetry of PFOA and GenX in maternal serum, maternal liver, amniotic fluid and whole embryos (UPLC-MS/MS)
# Experimental: Solid tissues were homogenized in RODI water at a ratio of approximately 1:3 tissue mass (milligrams) to liquid volume (microliters). Maternal serum, amniotic fluid, and tissue homogenates ( 25μL ) were spiked with internal standard suspended in 0.1M formic acid in a denaturation step, followed by a subsequent protein crash using ice-cold acetonitrile. Samples were vortex mixed after addition of formic acid and acetonitrile and then centrifuged at 10,000×g for 5 min. Extract supernatants were separated using a Waters ACQUITY UPLC® (Waters Corporation) fitted with a Waters ACQUITY UPLC® BEH C18 Column ( 130Å; 1.7μm; 2.1mm×50mm ). Detection was performed using a Waters Quattro Premier™ XE tandem quadrupole mass spectrometer in negative ionization mode.
# [2] = Litter parameters at necropsy (implantation sites, resorptions, viable and nonviable embryos); settings: female, CD-1, mouse, in vivo, oral, percent of implantation sites
# Experimental: On the day of necropsy, dams received daily oral gavage between 0700 and 0800 hours and were weighed and then euthanized humanely by swift decapitation, and serum was collected. In Block 1, necropsies were completed from 0800 to 1600 hours, and in Block 2, necropsies were completed from 0800 to 1200 hours. Serum from dams euthanized in Block 1 was snap frozen for internal dosimetry analyses. Serum and urine from Block 2 dams were reserved for clinical chemistry analyses. In both blocks, the uterus was removed, and total implantation sites were counted based on gross observation of an implantation nodule along the uterine horn. Viable embryos, nonviable embryos, and sites of resorption were counted based on gross observation. Embryos were considered viable if they were properly formed, were not pale in color, and were of similar size to neighboring embryos. Embryos that were poorly formed and pale in color (without heartbeat) were considered nonviable. Sites of resorption were defined as a dark red–appearing clot-like nodule apparent on gross observation.
# [3] = system: placenta; experiment: Placental thyroid hormone quantification (HPLC-MS/MS); settings: E17.5
# Experimental: Thyroid hormones (T3, triiodothyronine; T4, thyroxine; rT3, reverse triiodothyronine) in placenta were analyzed according to the methods described in Leonetti et al. ([2016]). Briefly, ∼300mg ( 207–526mg ) of two to three pooled placental tissues of same-sex embryos was homogenized and digested for 16 h overnight in PRONASE® Protease (Streptomyces griseus) solution (EMD Millipore Corp.). Each pooled sample of two to three placentas was considered as one biological replicate and included placentas from the same litter when possible. Three biological replicates were used for each treatment group and each sex. Samples were spiked with an antioxidant solution (containing 37.5mg/mL each of citric acid, ascorbic acid, and dithiothreitol) and C13 isotopically labeled internal standards (T4, T3, and rT3), and cold acetone was added to stop the digestion reaction. Samples were vortex mixed and centrifuged three times for 2 min at 10,000 relative centrifugal force (rcf), and the supernatants were collected and combined. Sample pH was adjusted with 6M hydrochloric acid to pH<2 . A liquid–liquid extraction with cyclopentane was performed and the cyclopentane layer discarded; briefly, 1mL of cyclopentane was added to the supernatant and vortexed before the sample was centrifuged for 3 min at 3,000 rcf and the cyclopentane layer discarded, and this was repeated three times. A liquid–liquid extraction with ethyl acetate was performed; briefly, 3mL of ethyl acetate was added to the extract and vortexed before being shaken on a plate shaker for 30 min and centrifuged for 3 min at 3,000 rcf, and the ethyl acetate layer collected; this was repeated three times. Ethyl acetate extracts were dried down to 50μL under a gentle nitrogen stream and resuspended in 1mL of 0.01M hydrochloric acid in 10% methanol. Samples were purified by solid-phase extraction using SampliQ Optimized Polymer Technology (OPT) cartridges ( 3mL , 50mg; Agilent Technologies). Final extracts in 400μL of 1:1 methanol:water were filtered using Whatman® Mini-UniPrep® Syringeless Filters [Polytetrafluoroethylene (PTFE), 0.2μm; GE Healthcare]. Extracts were analyzed on an Agilent high-performance liquid chromatography (HPLC) 1260 with a Synergi™ 50mm×2mm Polar-RP column ( 2.5μm; Phenomenex) coupled to an Agilent model 6460 tandem mass spectrometer with electrospray ionization (HPLC-MS/MS-ESI). Mobile phases consisted of 10 mM formic acid in methanol and 10 mM formic acid in water. Laboratory processing blanks were extracted alongside the placental tissues to monitor background levels. No TH were detected in the lab blanks. Method detection limits (MDLs) were calculated using a signal-to-noise value of 3 for each analyte (T3, T4, and rT3). Values were normalized to the wet weight of placenta extracted for a final value of nanogram hormone/gram placenta. Values below the MDL (T4, 0.84 ng/g; T3, 0.42 ng/g; rT3, 0.67 ng/g ) were imputed using the calculation MDL×0.5 , and values lacking a quantifiable peak on mass spectrometry were excluded from the analysis.
# TH concentrations in the placenta were quantified, and the ratios of T3:T4 and rT3:T4 in E17.5 placentas were assessed to evaluate potential disruption of peripheral TH control (e.g., impacts on thyroid deiodinase activity). Each end point was analyzed for sex×treatment interaction or for an overall effect of sex. Placenta TH were analyzed by analysis of variance using lme4 ([Bates et al. 2014]). Simultaneous tests for general linear hypotheses were corrected for multiple comparisons of means using Tukey contrasts in the package multcomp ([Hothorn et al. 2009]). Placental TH and their ratios were initially analyzed with embryo sex as an interaction term in the model, with the dose group as the predictor variable. Inclusion of a sex interaction or sex covariate in the final model was examined in a stepwise fashion. Internal dosimetry data were analyzed by analysis of variance. […]
smiles,measurement,setting,value
"N.O=C(O)C(F)(OC(F)(F)C(F)(F)C(F)(F)F)C(F)(F)F (centres unmarked) [GenX, ammonium 2,3,3,3-tetrafluoro-2-(heptafluoropropoxy)propanoate]","Serum concentration, pregnant mice",[1]; 2 mg/kg/d,~33000 ng/mL
same,Dam serum concentration,[1]; 10 mg/kg/d throughout gestation,~100 µg/mL
same,Amniotic fluid concentration,"[1]; E11.5, 2 mg/kg/d",3.6 ± 2.2 µg/mL
same,Maternal liver concentration,"[1]; E11.5, 2 mg/kg/d",5.45 ± 3.43 µg/g
same,Maternal serum concentration,"[1]; E11.5, 2 mg/kg/d",33.5 ± 15.7 µg/mL
same,Whole embryo concentration,"[1]; E11.5, 2 mg/kg/d",0.91 ± 0.22 µg/g and 0.91 ± 0.2 µg/g
same,GenX accumulation in dam serum higher than accumulation of PFOA,"[1]; E11.5, 2 mg/kg/d GenX vs 1 mg/kg/d PFOA",32%
same,Amniotic fluid concentration,"[1]; E11.5, 10 mg/kg/d",9.3 ± 2.0 µg/mL
same,Maternal liver concentration,"[1]; E11.5, 10 mg/kg/d",19.9 ± 4.2 µg/g
same,Maternal serum concentration,"[1]; E11.5, 10 mg/kg/d",118.1 ± 10.4 µg/mL
same,Whole embryo concentration,"[1]; E11.5, 10 mg/kg/d",3.21 ± 0.51 µg/g and 3.21 ± 0.5 µg/g
same,Female embryo concentration,"[1]; E17.5, 2 mg/kg/d",3.39 ± 1.44 µg/g
same,Male embryo concentration,"[1]; E17.5, 2 mg/kg/d",3.04 ± 1.27 µg/g
same,Maternal liver concentration,"[1]; E17.5, 2 mg/kg/d",4.56 ± 2.80 µg/g
same,Maternal serum concentration,"[1]; E17.5, 2 mg/kg/d",22.9 ± 17.1 µg/mL
same,Whole embryo concentration,"[1]; E17.5, 2 mg/kg/d",3.23 ± 1.28 µg/g
same,Female embryo concentration,"[1]; E17.5, 10 mg/kg/d",6.89 ± 2.72 µg/g
same,Male embryo concentration,"[1]; E17.5, 10 mg/kg/d",7.55 ± 3.35 µg/g
same,Maternal liver concentration,"[1]; E17.5, 10 mg/kg/d",14.2 ± 7.6 µg/g
same,Maternal serum concentration,"[1]; E17.5, 10 mg/kg/d",58.5 ± 34.5 µg/mL
same,Whole embryo concentration,"[1]; E17.5, 10 mg/kg/d",7.69 ± 2.92 µg/g
same,viability,"[2]; 2 mg/kg/d, E11.5",95 ± 6.2%
same,viability,"[2]; 2 mg/kg/d, E17.5",98.1 ± 4.6%
same,viability,"[2]; 10 mg/kg/d, E11.5",92.4 ± 9.3%
same,viability,"[2]; 10 mg/kg/d, E17.5",96.5 ± 5.3%
same,Placental T3,[3]; 2 mg/kg/d,"0.3±0.2 [5 (0, 5)] ng/g"
same,Placental T4,[3]; 2 mg/kg/d,"5.3±1.7 [6 (6, 0)] ng/g"
same,Placental rT3,[3]; 2 mg/kg/d,"1.7±0.8 [6 (6, 0)] ng/g"
same,Placental T3,[3]; 10 mg/kg/d,"0.2±0 [6 (0, 6)] ng/g"
same,Placental T4,[3]; 10 mg/kg/d,"6.1±1.1 [6 (6, 0)] ng/g"
same,Placental rT3,[3]; 10 mg/kg/d,"1.6±0.3 [6 (6, 0)] ng/g"
same,Placental T3,"[3]; female, 2 mg/kg/d",0.3 ± 0.2 ng/g
same,Placental T4,"[3]; female, 2 mg/kg/d",5.9 ± 2.3 ng/g
same,Placental rT3,"[3]; female, 2 mg/kg/d",2.3 ± 0.6 ng/g
same,Placental T3,"[3]; female, 10 mg/kg/d",0.2 ± 0 ng/g
same,Placental T4,"[3]; female, 10 mg/kg/d",6.5 ± 1.4 ng/g
same,Placental rT3,"[3]; female, 10 mg/kg/d",1.9 ± 0.1 ng/g
same,Placental T3,"[3]; male, 2 mg/kg/d",0.2 ± 0 ng/g
same,Placental T4,"[3]; male, 2 mg/kg/d",4.7 ± 1.1 ng/g
same,Placental rT3,"[3]; male, 2 mg/kg/d",1.0 ± 0.2 ng/g
same,Placental T3,"[3]; male, 10 mg/kg/d",0.2 ± 0 ng/g
same,Placental T4,"[3]; male, 10 mg/kg/d",5.8 ± 0.7 ng/g
same,Placental rT3,"[3]; male, 10 mg/kg/d",1.3 ± 0.3 ng/g
"O=C(O)C(F)(F)C(F)(F)C(F)(F)C(F)(F)C(F)(F)C(F)(F)C(F)(F)F [PFOA, Perfluorooctanoic acid]",Amniotic fluid concentration,"[1]; E11.5, 1 mg/kg/d",4.6 ± 2.8 µg/mL
same,Maternal liver concentration,"[1]; E11.5, 1 mg/kg/d",48.3 ± 12.5 µg/g
same,Maternal serum concentration,"[1]; E11.5, 1 mg/kg/d",25.4 ± 3.7 µg/mL
same,Whole embryo concentration,"[1]; E11.5, 1 mg/kg/d",0.80 ± 0.10 µg/g
same,Amniotic fluid concentration,"[1]; E11.5, 5 mg/kg/d",8.8 ± 2.7 µg/mL
same,Maternal liver concentration,"[1]; E11.5, 5 mg/kg/d",151.5 ± 18.5 µg/g
same,Maternal serum concentration,"[1]; E11.5, 5 mg/kg/d",117.3 ± 20.6 µg/mL
same,Whole embryo concentration,"[1]; E11.5, 5 mg/kg/d",2.34 ± 0.27 µg/g and 2.34 ± 0.3 µg/g
same,Female embryo concentration,"[1]; E17.5, 1 mg/kg/d",5.78 ± 0.81 µg/g
same,Male embryo concentration,"[1]; E17.5, 1 mg/kg/d",5.78 ± 0.82 µg/g
same,Maternal liver concentration,"[1]; E17.5, 1 mg/kg/d",181.1 ± 46.0 µg/g
same,Maternal serum concentration,"[1]; E17.5, 1 mg/kg/d",18.7 ± 3.2 µg/mL
same,Whole embryo concentration,"[1]; E17.5, 1 mg/kg/d",5.78 ± 0.71 µg/g
same,Female embryo concentration,"[1]; E17.5, 5 mg/kg/d",16.1 ± 2.75 µg/g
same,Male embryo concentration,"[1]; E17.5, 5 mg/kg/d",16.9 ± 1.88 µg/g
same,Maternal liver concentration,"[1]; E17.5, 5 mg/kg/d",159.2 ± 21.7 µg/g
same,Maternal serum concentration,"[1]; E17.5, 5 mg/kg/d",95.1 ± 14.1 µg/mL
same,Whole embryo concentration,"[1]; E17.5, 5 mg/kg/d",16.4 ± 1.75 µg/g
same,Maximum bioaccumulation in maternal liver,"[1]; by E17.5, regardless of PFOA dose group",160–180 μg PFOA/g liver
same,viability,"[2]; 1 mg/kg/d, E11.5",96 ± 3.3%
same,viability,"[2]; 1 mg/kg/d, E17.5",96.8 ± 4.1%
same,viability,"[2]; 5 mg/kg/d, E11.5",95.9 ± 5.9%
same,viability,"[2]; 5 mg/kg/d, E17.5",97.7 ± 3.4%
same,Placental T3,[3]; 1 mg/kg/d,"0.2±0 [6 (0, 6)] ng/g"
same,Placental T3:T4 ratio,[3]; 1 mg/kg/d,0.09±0.03 [6]
same,Placental T4,[3]; 1 mg/kg/d,"2.5±1.0 [6 (6, 0)] ng/g"
same,Placental rT3,[3]; 1 mg/kg/d,"0.7±0.4 [6 (3, 3)] ng/g"
same,Placental rT3:T4 ratio,[3]; 1 mg/kg/d,0.30±0.21 [6]
same,Placental T3,[3]; 5 mg/kg/d,"0.2±0 [4 (0, 4)] ng/g"
same,Placental T3:T4 ratio,[3]; 5 mg/kg/d,0.07±0.02 [4]
same,Placental T4,[3]; 5 mg/kg/d,"2.8±1.3 [6 (6, 0)] ng/g"
same,Placental rT3,[3]; 5 mg/kg/d,"1.4±0.7 [5 (5, 0)] ng/g"
same,Placental rT3:T4 ratio,[3]; 5 mg/kg/d,0.45±0.05 [5]
same,Placental T3,"[3]; female, 1 mg/kg/d",0.2 ± 0 ng/g
same,Placental T3:T4 ratio,"[3]; female, 1 mg/kg/d",0.104 ± 0.02
same,Placental T4,"[3]; female, 1 mg/kg/d",2.0 ± 0.4 ng/g
same,Placental rT3:T4 ratio,"[3]; female, 1 mg/kg/d",0.401 ± 0.22
same,Placental T3,"[3]; female, 5 mg/kg/d",0.2 ± 0 ng/g
same,Placental T3:T4 ratio,"[3]; female, 5 mg/kg/d",0.065 ± 0.02
same,Placental rT3,"[3]; female, 5 mg/kg/d",1.6 ± 1.0 ng/g
same,Placental rT3:T4 ratio,"[3]; female, 5 mg/kg/d",0.441 ± 0.05
same,Placental T3,"[3]; male, 1 mg/kg/d",0.2 ± 0 ng/g
same,Placental T3:T4 ratio,"[3]; male, 1 mg/kg/d",0.071 ± 0.02
same,Placental rT3,"[3]; male, 1 mg/kg/d",0.5 ± 0.4 ng/g
same,Placental rT3:T4 ratio,"[3]; male, 1 mg/kg/d",0.196 ± 0.17
same,Placental T3,"[3]; male, 5 mg/kg/d",0.2 ng/g
same,Placental T3:T4 ratio,"[3]; male, 5 mg/kg/d",0.083
same,Placental rT3,"[3]; male, 5 mg/kg/d",1.2 ± 0.1 ng/g
same,Placental rT3:T4 ratio,"[3]; male, 5 mg/kg/d",0.454 ± 0.07
